{
  "source": "patent US10881642B2",
  "about": "“Autophagy enhancer and use thereof” (Industry-Academic Cooperation Foundation, Yonsei University, priority 2016, dated 2021)",
  "key": {"[1]": {"tested_on": "Hepa1c1c7 cells", "assay": "Lipid droplet clearance after PA and OA loading", "assay_type": "cell-based"}, "[2]": {"tested_on": "HeLa cells", "assay": "Acridine orange staining of acidic vesicular organelles", "assay_type": "cell-based", "details": "24 hrs", "method": "FIG. 3A is the graph showing the percentage of nuclear translocated TFEB for which TFEB-GFP HeLa cells were treated with MSL compound for 4 hrs and then nuclei of the cells were stained with DAPI. FIG. 3B is the results of the experiments in which HeLa cells were incubated in the presence of MSL compound or vehicle control for 24 hrs and then the acidic vesicular organelles formed were stained with acridine orange. FIG. 3C is the results of the experiments in which TFEB-GFP HeLa cells were treated with MSL compound or vehicle control for 4 hrs and then the cells were immunoblotted with the antibodies indicated. […]\nScreening of autophagy enhancer. […] Firefly luciferase was determined after mixing 5 μl of lysate with 25 μl of Luciferase Assay Reagent II. Renilla luciferase was then determined after further addition of 20 ul of Stop&Glo Reagent. […] Cytotoxicity was determined by the measurement of LDH release in cell culture media using the LDH kit (Roche), according to the protocol from the manufacturer. […] Imaging and image quantification. […] Formation of acidic vesicular organelles was quantitated by staining the cells with acridine orange (Invitrogen, 5 ug/ml, 10 min). […] Cells or tissues were solubilized in lysis buffer supplemented with protease and phosphatase inhibitors and protein concentration was measured by the Bradford method. […] Protein levels were quantified by using ImageJ software analysis. […]"}},
  "data": [
    {"smiles": "CSc1oc(-c2ccccc2)nc1S(=O)(=O)c1ccc(F)cc1", "note": "[MSL]", "values": [
      {"measurement": "lipid content in cells loaded with PA and OA", "setting": "[1]", "value": "significantly reduced"},
      {"measurement": "content of lipid droplets stained BODIPY", "setting": "[1]; PA and OA loaded, 16 h", "value": "significantly decreased"},
      {"measurement": "red fluorescence after acridine orange staining (lysosomal acidification and content)", "setting": "[2]", "value": "significantly increased"}
    ]}
  ]
}
